Results published in US12484575B2, “Mosquito egg cryopreservation” (Sanaria Inc., priority 2019, dated 2025).

Tests used:
[1] = tested on: An. stephensi SD500 mosquito eggs; assay: Hatch rate of An. stephensi eggs after two-step CPA incubation, plunge into LN2 and thawing/dilution; format: in vivo, Anopheles stephensi; conditions: for Average ranked score of hatch rates (1 best to 4): thirteen experiments
Procedure: (§1) CPA was contained in a polypropylene 19 mm diameter×19 mm deep paint mixing pot (Michaels 10271583) embedded in a custom aluminum block machined to cover a Peltier-cooled block (Torrey Pines Scientific, IC22XT). CPA was equilibrated to temperature for >2 h prior to addition of eggs for the first incubation step at −6.8° C. Temperature was monitored using a digital thermometer with type-T thermocouple probe in a control sample in the block. Several relatively low molecular weight CPAs were evaluated at different concentrations for toxicity by incubation at 0° C. for up to 15 minutes, including: dimethylacetamide, dimethylformamide, dimethyl sulphoxide, ethanol, ethylene glycol, formamide, glycerol, H4-methanol (also referred to herein as “methanol”), D4 (deuterated)-methanol, D4/^13C-methanol, methylacetamide, propanediol, (sourced from SigmaAldrich); combinations in different ratios were also evaluated.

[2] = tested on: Anopheles eggs; assay: Evaluation of low molecular weight CPAs and CPA concentrations for toxicity and egg viability; format: in vivo, Anopheles stephensi
Procedure: as §1
Percentages (v/v) of methanol and D4-methanol in water solutions were evaluated at between 50% and 100% aqueous CPA, namely, 50%, 70%, and 90%, and compared to CPA concentrations of 100%.

[3] = ambient temperatures; cited from earlier work
[4] = tested on: larvae of An. gambiae; conditions: used with common methodologies; cited from earlier work
[5] = tested on: Anopheles eggs; conditions: 100% methanol, 20 minutes at −11° C., after subsequent cooling and warming/dilution
Procedure: Control eggs warmed/diluted from −11° C. (“Control”); eggs subsequently cooled in LN2 (“LN2”) before warming/dilution.
Once the first larval hatching was recorded, subsequent experiments recorded the percentage of larval hatch rate (number of larvae×100/number of eggs in the Petri dish) on day-3 post-thaw, and this was used as the measure of survival. In experiments measuring full development, the hatched larvae were fed standard larval food, pupae were harvested and transferred to rearing pans in 300×300×300 mm cages for adult mosquito emergence.

[6] = tested on: An. gambiae embryos; conditions: used as permeabilization reagents; cited from earlier work
[7] = 100% CPA, compared with 50%, 70%, 90%

| Compound | Average ranked score of hatch rates (1 best to 4) ([1]; LN2 plunge boiling −196° C.) | Average ranked score of hatch rates (1 best to 4) ([1]; LN2 plunge chilled −202° C.) | Hatch rates versus methanol ([1]; coupled with cooling by plunge into chilled LN2) | Viability of eggs [2, 7] | Viability of eggs ([2]; CPA at 50% v/v in water) | Result among the CPAs evaluated ([2]; comparison of low molecular weight CPAs) | Viscosity increase relative to H4-methanol [3] | Tolerance by and permeation of untreated eggs ([2]; untreated Anopheles eggs) | Toxicity to larvae [4] | Proportion of eggs hatched [5] | Toxicity to embryos [6] |
| --- | --- | --- | --- | --- | --- | --- | --- | --- | --- | --- | --- |
| [2H]OC([2H])([2H])[2H] [D4-Methanol, D4-methanol] | 2.47 | 2.20 | marginally improved hatch rates | highest | a small percentage of viable eggs | best results | approximately 11% |  |  |  |  |
| CO [Methanol, methanol] | 2.87 | 2.27 |  | highest | a small percentage of viable eggs |  |  | tolerated by, and to permeate, untreated Anopheles eggs | highly toxic | 15.3±4.3% |  |
| OCCO [ethylene glycol, reference compound] |  |  |  |  |  |  |  |  | highly toxic |  |  |
| CCCCCCC [heptane] |  |  |  |  |  |  |  |  |  |  | extremely toxic to the embryos |
